# Measurements published in ChEMBL document CHEMBL3885881, “DrugMatrix”.
# Species on record: Rattus norvegicus
# Assay: DrugMatrix - Regimen: Daily Repeat
# Type: toxicity, organism-based, Sprague-Dawley
# Set-up: regimen Daily Repeat, gender Male, age 6-8 weeks
# Conditions: in vivo, po, route oral GAVAGE, vehicle 100 % WATER; for ABSOLUTE BASOPHIL / ABSOLUTE EOSINOPHIL / ABSOLUTE LYMPHOCYTE / ABSOLUTE MONOCYTE / ABSOLUTE SEGMENTED NEUTROPHIL / BASOPHIL / EOSINOPHIL / ERYTHROCYTE COUNT / HEMATOCRIT / HEMOGLOBIN / LEUKOCYTE COUNT / LYMPHOCYTE / MEAN CORPUSCULAR HEMOGLOBIN / MEAN CORPUSCULAR HEMOGLOBIN CONCENTRATION / MEAN CORPUSCULAR VOLUME / MONOCYTE / NEUTROPHIL / NUCLEATED RED BLOOD CELLS / PLATELET COUNT: tissue Blood; for ALANINE AMINOTRANSFERASE / ALBUMIN / ALKALINE PHOSPHATASE / ASPARTATE AMINOTRANSFERASE / BLOOD UREA NITROGEN / CARBON DIOXIDE / CHLORIDE / CHOLESTEROL / CREATINE PHOSPHOKINASE / CREATININE / GLUCOSE / LIPASE / PHOSPHORUS / POTASSIUM / SODIUM / TOTAL BILIRUBIN / TOTAL PROTEIN / URIC ACID: tissue Plasma
# [1] = 0 mg/kg, 72 h, dose level Control, time 3 day
# [2] = 0 mg/kg, 120 h, dose level Control, time 5 day
# [3] = 175 mg/kg, 72 h, dose level High, time 3 day
smiles,measurement,setting,value
CC(C)NCC(O)COc1cccc2ccccc12 (stereo unspecified) [PROPRANOLOL],ABSOLUTE BASOPHIL,[1],0 CELLS/uL
same,ABSOLUTE EOSINOPHIL,[1],46 CELLS/uL
same,ABSOLUTE LYMPHOCYTE,[1],10225.67 CELLS/uL
same,ABSOLUTE MONOCYTE,[1],319.33 CELLS/uL
same,ABSOLUTE SEGMENTED NEUTROPHIL,[1],1242.33 CELLS/uL
same,BASOPHIL,[1],0%
same,EOSINOPHIL,[1],0.33%
same,ERYTHROCYTE COUNT,[1],5.17 x10E6/uL
same,HEMATOCRIT,[1],33.43%
same,HEMOGLOBIN,[1],12.55 G/DL
same,LEUKOCYTE COUNT,[1],11.83 x10E3/uL
same,LYMPHOCYTE,[1],86.5%
same,MEAN CORPUSCULAR HEMOGLOBIN,[1],24.35 pg
same,MEAN CORPUSCULAR HEMOGLOBIN CONCENTRATION,[1],37.57 G/DL
same,MEAN CORPUSCULAR VOLUME,[1],64.8 fL
same,MONOCYTE,[1],2.67%
same,NEUTROPHIL,[1],10.5%
same,NUCLEATED RED BLOOD CELLS,[1],0.17 /100WBC
same,PLATELET COUNT,[1],1026.17 x10E3/uL
same,ALANINE AMINOTRANSFERASE,[1],52.67 u/L
same,ALBUMIN,[1],4.17 G/DL
same,ALKALINE PHOSPHATASE,[1],331 u/L
same,ASPARTATE AMINOTRANSFERASE,[1],92.33 u/L
same,BLOOD UREA NITROGEN,[1],15.33 mg/dL
same,CARBON DIOXIDE,[1],26.17 mmol/L
same,CHLORIDE,[1],103.17 MEQ/L
same,CHOLESTEROL,[1],73.67 mg/dL
same,CREATINE PHOSPHOKINASE,[1],472.83 u/L
same,CREATININE,[1],0.29 mg/dL
same,GLUCOSE,[1],178.5 mg/dL
same,LIPASE,[1],10.67 u/L
same,PHOSPHORUS,[1],12.45 mg/dL
same,POTASSIUM,[1],6.35 MEQ/L
same,SODIUM,[1],144.27 MEQ/L
same,TOTAL BILIRUBIN,[1],0.13 mg/dL
same,TOTAL PROTEIN,[1],5.77 G/DL
same,URIC ACID,[1],2.08 mg/dL
same,ABSOLUTE BASOPHIL,[2],0 CELLS/uL
same,ABSOLUTE EOSINOPHIL,[2],23.5 CELLS/uL
same,ABSOLUTE LYMPHOCYTE,[2],12797.33 CELLS/uL
same,ABSOLUTE MONOCYTE,[2],465.5 CELLS/uL
same,ABSOLUTE SEGMENTED NEUTROPHIL,[2],1313.67 CELLS/uL
same,BASOPHIL,[2],0%
same,EOSINOPHIL,[2],0.17%
same,ERYTHROCYTE COUNT,[2],5.76 x10E6/uL
same,HEMATOCRIT,[2],36.72%
same,HEMOGLOBIN,[2],13.72 G/DL
same,LEUKOCYTE COUNT,[2],14.6 x10E3/uL
same,LYMPHOCYTE,[2],87.5%
same,MEAN CORPUSCULAR HEMOGLOBIN,[2],23.8 pg
same,MEAN CORPUSCULAR HEMOGLOBIN CONCENTRATION,[2],37.35 G/DL
same,MEAN CORPUSCULAR VOLUME,[2],63.72 fL
same,MONOCYTE,[2],3.17%
same,NEUTROPHIL,[2],9.17%
same,NUCLEATED RED BLOOD CELLS,[2],0.33 /100WBC
same,PLATELET COUNT,[2],1270.67 x10E3/uL
same,ALANINE AMINOTRANSFERASE,[2],50.5 u/L
same,ALBUMIN,[2],4.32 G/DL
same,ALKALINE PHOSPHATASE,[2],339.67 u/L
same,ASPARTATE AMINOTRANSFERASE,[2],88 u/L
same,BLOOD UREA NITROGEN,[2],17 mg/dL
same,CARBON DIOXIDE,[2],25 mmol/L
same,CHLORIDE,[2],103.83 MEQ/L
same,CHOLESTEROL,[2],71.33 mg/dL
same,CREATINE PHOSPHOKINASE,[2],281.83 u/L
same,CREATININE,[2],0.26 mg/dL
same,GLUCOSE,[2],161.67 mg/dL
same,LIPASE,[2],10.17 u/L
same,PHOSPHORUS,[2],11.72 mg/dL
same,POTASSIUM,[2],6.76 MEQ/L
same,SODIUM,[2],145.17 MEQ/L
same,TOTAL BILIRUBIN,[2],0.2 mg/dL
same,TOTAL PROTEIN,[2],6.15 G/DL
same,URIC ACID,[2],2 mg/dL
same,ABSOLUTE BASOPHIL,[3],0 CELLS/uL
same,ABSOLUTE EOSINOPHIL,[3],124 CELLS/uL
same,ABSOLUTE LYMPHOCYTE,[3],11451.33 CELLS/uL
same,ABSOLUTE MONOCYTE,[3],0 CELLS/uL
same,ABSOLUTE SEGMENTED NEUTROPHIL,[3],824.67 CELLS/uL
same,BASOPHIL,[3],0%
same,EOSINOPHIL,[3],1%
same,ERYTHROCYTE COUNT,[3],5.24 x10E6/uL
same,HEMATOCRIT,[3],34.07%
same,HEMOGLOBIN,[3],12.73 G/DL
same,LEUKOCYTE COUNT,[3],12.4 x10E3/uL
same,LYMPHOCYTE,[3],92%
same,MEAN CORPUSCULAR HEMOGLOBIN,[3],24.3 pg
same,MEAN CORPUSCULAR HEMOGLOBIN CONCENTRATION,[3],37.37 G/DL
same,MEAN CORPUSCULAR VOLUME,[3],65.07 fL
same,MONOCYTE,[3],0%
same,NEUTROPHIL,[3],7%
same,NUCLEATED RED BLOOD CELLS,[3],0 /100WBC
same,PLATELET COUNT,[3],1403.33 x10E3/uL
same,ALANINE AMINOTRANSFERASE,[3],49 u/L
same,ALBUMIN,[3],4.2 G/DL
same,ALKALINE PHOSPHATASE,[3],411 u/L
same,ASPARTATE AMINOTRANSFERASE,[3],73.33 u/L
same,BLOOD UREA NITROGEN,[3],14.33 mg/dL
same,CARBON DIOXIDE,[3],24 mmol/L
same,CHLORIDE,[3],103 MEQ/L
same,CHOLESTEROL,[3],75.33 mg/dL
same,CREATINE PHOSPHOKINASE,[3],253.33 u/L
same,CREATININE,[3],0.21 mg/dL
same,GLUCOSE,[3],152.33 mg/dL
same,LIPASE,[3],9 u/L
same,PHOSPHORUS,[3],13.13 mg/dL
same,POTASSIUM,[3],6.83 MEQ/L
same,SODIUM,[3],143.67 MEQ/L
same,TOTAL BILIRUBIN,[3],0.13 mg/dL
same,TOTAL PROTEIN,[3],5.77 G/DL
same,URIC ACID,[3],2.97 mg/dL
